Reference: paper doi:10.1101/2023.11.24.568596v1 (biorxiv, 2023)
Values belong to the compound of their own block, whether it stands above or below them.

Assays:
Details in all cases: binder
MAP3K5 = molecular target: T1, MAP3K5 (Homo sapiens, UniProt Q99683)
T1 sequence (Q99683 1-1374): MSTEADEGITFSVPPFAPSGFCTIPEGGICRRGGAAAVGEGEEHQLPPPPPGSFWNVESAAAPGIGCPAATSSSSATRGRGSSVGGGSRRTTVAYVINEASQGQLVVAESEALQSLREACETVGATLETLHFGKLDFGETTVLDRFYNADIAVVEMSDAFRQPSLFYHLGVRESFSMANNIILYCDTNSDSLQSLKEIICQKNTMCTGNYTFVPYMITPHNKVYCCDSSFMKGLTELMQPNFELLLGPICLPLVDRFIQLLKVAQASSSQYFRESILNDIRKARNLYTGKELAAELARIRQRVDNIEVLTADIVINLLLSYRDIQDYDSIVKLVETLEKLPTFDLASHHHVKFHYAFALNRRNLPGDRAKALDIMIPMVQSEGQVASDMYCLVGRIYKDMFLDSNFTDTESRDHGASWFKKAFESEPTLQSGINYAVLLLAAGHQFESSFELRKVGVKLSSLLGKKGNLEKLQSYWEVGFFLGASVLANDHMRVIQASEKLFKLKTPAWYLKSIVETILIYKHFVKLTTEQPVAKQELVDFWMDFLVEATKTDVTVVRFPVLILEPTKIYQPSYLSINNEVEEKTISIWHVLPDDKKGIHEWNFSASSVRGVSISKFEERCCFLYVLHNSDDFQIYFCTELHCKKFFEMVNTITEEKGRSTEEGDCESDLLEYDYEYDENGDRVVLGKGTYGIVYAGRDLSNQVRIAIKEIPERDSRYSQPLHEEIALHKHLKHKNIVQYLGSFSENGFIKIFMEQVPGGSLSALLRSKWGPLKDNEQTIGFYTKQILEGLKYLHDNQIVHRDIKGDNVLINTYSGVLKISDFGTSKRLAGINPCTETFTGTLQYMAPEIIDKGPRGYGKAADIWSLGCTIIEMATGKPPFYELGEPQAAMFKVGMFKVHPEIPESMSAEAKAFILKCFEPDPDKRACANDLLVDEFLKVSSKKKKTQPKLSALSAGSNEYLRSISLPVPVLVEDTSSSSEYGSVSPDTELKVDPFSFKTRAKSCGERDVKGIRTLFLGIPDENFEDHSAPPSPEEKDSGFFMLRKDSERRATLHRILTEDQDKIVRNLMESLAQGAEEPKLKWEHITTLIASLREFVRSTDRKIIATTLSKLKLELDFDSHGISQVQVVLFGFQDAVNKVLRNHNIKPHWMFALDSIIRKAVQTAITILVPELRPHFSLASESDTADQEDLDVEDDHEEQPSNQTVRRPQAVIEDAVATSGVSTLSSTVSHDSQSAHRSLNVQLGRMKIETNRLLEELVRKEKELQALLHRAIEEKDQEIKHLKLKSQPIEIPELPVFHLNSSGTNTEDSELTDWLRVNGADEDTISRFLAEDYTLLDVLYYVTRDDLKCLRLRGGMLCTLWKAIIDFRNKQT

BRPF1 = molecular target: T2, BRPF1 (Homo sapiens, UniProt P55201)
T2 sequence (P55201 1-1214): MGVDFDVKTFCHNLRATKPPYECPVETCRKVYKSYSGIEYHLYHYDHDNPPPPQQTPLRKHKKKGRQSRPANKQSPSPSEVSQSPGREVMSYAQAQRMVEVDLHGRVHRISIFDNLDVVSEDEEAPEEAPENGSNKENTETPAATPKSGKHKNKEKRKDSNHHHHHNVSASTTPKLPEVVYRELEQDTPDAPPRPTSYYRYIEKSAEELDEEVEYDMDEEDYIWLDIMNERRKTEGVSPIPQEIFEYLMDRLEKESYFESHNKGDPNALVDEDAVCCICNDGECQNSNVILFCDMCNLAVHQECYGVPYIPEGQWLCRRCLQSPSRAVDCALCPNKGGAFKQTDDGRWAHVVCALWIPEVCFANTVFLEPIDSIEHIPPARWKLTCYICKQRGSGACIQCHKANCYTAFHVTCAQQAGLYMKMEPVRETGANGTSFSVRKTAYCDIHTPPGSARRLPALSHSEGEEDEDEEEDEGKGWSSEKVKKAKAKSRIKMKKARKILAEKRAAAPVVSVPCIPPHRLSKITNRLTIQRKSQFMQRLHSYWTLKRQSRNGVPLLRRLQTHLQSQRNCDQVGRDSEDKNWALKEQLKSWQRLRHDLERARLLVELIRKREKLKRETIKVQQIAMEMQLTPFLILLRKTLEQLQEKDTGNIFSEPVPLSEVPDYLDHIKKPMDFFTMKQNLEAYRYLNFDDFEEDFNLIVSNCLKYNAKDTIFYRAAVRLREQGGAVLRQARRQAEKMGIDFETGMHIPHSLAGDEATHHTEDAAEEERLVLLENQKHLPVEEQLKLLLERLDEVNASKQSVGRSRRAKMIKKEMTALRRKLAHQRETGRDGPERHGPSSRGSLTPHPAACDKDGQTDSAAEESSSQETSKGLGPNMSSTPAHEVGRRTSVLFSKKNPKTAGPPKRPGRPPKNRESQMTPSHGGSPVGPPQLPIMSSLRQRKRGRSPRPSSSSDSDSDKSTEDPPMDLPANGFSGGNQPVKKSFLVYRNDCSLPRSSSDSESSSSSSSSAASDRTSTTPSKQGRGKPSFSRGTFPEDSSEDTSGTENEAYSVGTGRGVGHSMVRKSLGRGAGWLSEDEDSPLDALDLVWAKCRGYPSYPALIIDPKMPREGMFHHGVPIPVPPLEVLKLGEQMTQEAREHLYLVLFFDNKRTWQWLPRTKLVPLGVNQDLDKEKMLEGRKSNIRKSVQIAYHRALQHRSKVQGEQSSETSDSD

EphA7 = EphA7 (Homo sapiens, UniProt Q15375)
Chain of EphA7 (Q15375 whole entry): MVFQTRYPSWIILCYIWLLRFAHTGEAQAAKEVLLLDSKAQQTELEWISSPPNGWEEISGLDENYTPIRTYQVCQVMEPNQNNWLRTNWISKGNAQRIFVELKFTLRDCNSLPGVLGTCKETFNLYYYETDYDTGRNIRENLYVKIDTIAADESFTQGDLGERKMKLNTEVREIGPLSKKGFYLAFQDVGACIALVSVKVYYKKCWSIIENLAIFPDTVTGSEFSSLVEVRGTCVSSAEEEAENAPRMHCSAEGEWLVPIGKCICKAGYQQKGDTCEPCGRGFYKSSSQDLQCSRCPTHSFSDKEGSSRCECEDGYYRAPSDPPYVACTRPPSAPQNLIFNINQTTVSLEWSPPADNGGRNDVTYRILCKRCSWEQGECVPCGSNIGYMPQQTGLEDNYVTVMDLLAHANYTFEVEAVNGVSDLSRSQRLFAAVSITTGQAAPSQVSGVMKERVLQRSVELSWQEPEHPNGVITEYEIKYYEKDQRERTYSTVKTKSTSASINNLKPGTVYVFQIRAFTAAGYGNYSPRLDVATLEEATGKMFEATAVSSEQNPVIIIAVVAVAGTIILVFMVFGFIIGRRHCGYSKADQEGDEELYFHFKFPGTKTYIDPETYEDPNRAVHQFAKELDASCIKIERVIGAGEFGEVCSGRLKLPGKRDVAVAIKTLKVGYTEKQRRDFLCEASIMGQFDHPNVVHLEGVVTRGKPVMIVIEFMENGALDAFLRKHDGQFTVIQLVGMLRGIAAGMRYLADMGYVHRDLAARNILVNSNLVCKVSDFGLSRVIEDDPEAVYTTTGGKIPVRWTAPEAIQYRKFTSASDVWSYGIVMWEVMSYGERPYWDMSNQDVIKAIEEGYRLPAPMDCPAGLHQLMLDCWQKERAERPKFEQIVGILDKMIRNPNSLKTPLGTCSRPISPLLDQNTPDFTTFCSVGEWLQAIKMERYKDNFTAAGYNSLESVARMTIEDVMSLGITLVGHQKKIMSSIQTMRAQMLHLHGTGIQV

dTm 33 (MAP3K5): 14.1 °C
dTm 33 (BRPF1): -2.7 °C
dTm 33 (EphA7): 5.3 °C
Structure (SMILES): Cc1cccc(-c2ccc(-c3cc4cnc(Nc5ccc(F)c(CO)c5)nc4n(CCCCN)c3=O)c(Cl)c2)n1 [compound 33, 8-(4-Aminobutyl)-6-(2-chloro-4-(6-methylpyridin-2-yl)phenyl)-2-((4-fluoro-3-(hydroxymethyl)phenyl)amino)pyrido[2,3-d]pyrimidin-7(8H)-one]

dTm 34 (MAP3K5): 10.3 °C
dTm 34 (BRPF1): -1.6 °C
dTm 34 (EphA7): 3.4 °C
Structure (SMILES): COc1ccc(O)c(Nc2ncc3cc(-c4ccc(-c5cccc(C)n5)cc4Cl)c(=O)n(CCCCN)c3n2)c1 [compound 34, 8-(4-Aminobutyl)-6-(2-chloro-4-(6-methylpyridin-2-yl)phenyl)-2-((2-hydroxy-5-methoxy-phenyl)amino)pyrido[2,3-d]pyrimidin-7(8H)-one]

dTm 35 (MAP3K5): 12.2 °C
dTm 35 (BRPF1): -2.8 °C
dTm 35 (EphA7): 5.8 °C
Structure (SMILES): COc1cc(N2CCOCC2)ccc1Nc1ncc2cc(-c3ccc(-c4cccc(C)n4)cc3Cl)c(=O)n(CCCCN)c2n1 [compound 35, 8-(4-Aminobutyl)-6-(2-chloro-4-(6-methylpyridin-2-yl)phenyl)-2-((2-methoxy-4-morpholino-phenyl)amino)pyrido[2,3-d]pyrimidin-7(8H)-one]

dTm 36 (MAP3K5): 10.1 °C
dTm 36 (BRPF1): -1.2 °C
dTm 36 (EphA7): 5.0 °C
Structure (SMILES): COc1cc(N2CCN(C)CC2)ccc1Nc1ncc2cc(-c3ccc(-c4cccc(C)n4)cc3Cl)c(=O)n(CCCCN)c2n1 [compound 36, 8-(4-Aminobutyl)-6-(2-chloro-4-(6-methylpyridin-2-yl)phenyl)-2-((2-methoxy-4-(4-methylpiperazin-1-yl)phenyl)amino)pyrido[2,3-d]pyrimidin-7(8H)-one]
